Common to all, as to experiment: NCI anticancer screen, dose series, 48 h
Assay [1] deals with HCT-116 colon.
Assay [2] deals with U251 CNS.
In assay [3] the test system is HCT-15 colon.
Assay [4] concerns CCRF-CEM leukemia.
Assay [5] deals with HL-60(TB) leukemia.
Assay [6] has as its system MOLT-4 leukemia.
The test system of assay [7] is SW-620 colon.
Assay [8] deals with PC-3 prostate.
The test system of assay [9] is 786-0 renal.
Assay [10] has as its system A549 NSCLC.

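Grown in 96-well plates, cells were treated for 48 hours with each compound at five concentrations. Insufficient inhibition: endpoint recorded as highest concentration tested. Here, GI50 denotes the concentration required for 50% inhibition of growth. TGI marks complete inhibition of growth.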 Where a SMILES comes first, the peptide text is derived from it. [ ]: non-standard residue; d: D form. pGlu = O=C1CC[CH](C(=O)O)N1

Consider `N#CC1(C#N)C2(c3ccccc3)OC(c3ccccc3)(c3cc4ccccc4cc32)C1(C#N)C#N`, for which the TGI in [1] was found to be 20 µM; in assay [2] it was 35.9 µM; in assay [3], 26.7 µM; in assay [4], 3.29 µM; in [5] it was 7.05 µM; in assay [6] it was 4.88 µM. Besides, the TGI came out at 9.72 µM in assay [7], 32.9 µM in assay [8], 21.3 µM in [9] and 33.9 µM in assay [10].
In the case of `Clc1nc(Cl)c2ncn(CC3(Cn4cnc5c(Cl)nc(Cl)nc54)COC3)c2n1`, the GI50 in [1] was 0.182 µM; in assay [2] it was 0.181 µM; in assay [3], 0.178 µM; in assay [4], 0.221 µM; in [5], 0.354 µM; in assay [6], 0.462 µM. Moreover, the GI50 is 0.257 µM in [7], 0.188 µM in [8], 0.762 µM in [9] and 0.273 µM in assay [10]. Further, the TGI in assay [1] amounted to 0.35 µM; in assay [2] it was 0.331 µM; in [3] it was 0.361 µM; in assay [4] it was 0.471 µM; in assay [5], 2.78 µM; in assay [7], 0.651 µM. Also, the results for the TGI in assay [8], in assay [9] and in assay [10] were 0.348 µM, 2.37 µM and 1.19 µM, respectively.
`COc1cccc(N2CCN(CC(=O)N3CCN(c4nnc(-c5ccc(Cl)cc5)c(-c5ccc(Cl)cc5)n4)CC3)CC2)c1`: the GI50 in assay [1] is 5.98 µM; in assay [2] it was 16.7 µM; in assay [3], 8.35 µM; in [4], 27.2 µM; in assay [5] it was 3.84 µM; in assay [6], 3.1 µM. In addition, the GI50 was 64.9 µM in assay [7], 16.6 µM in assay [8], 16.3 µM in assay [9] and 38.1 µM in [10]. Moreover, the TGI in assay [1], in [2], in assay [3], in assay [4], in assay [5] and in assay [6] was greater than 100 µM throughout. Besides, the TGI in assay [7] was greater than 100 µM; in [8], greater than 100 µM; in assay [9], 62.3 µM; in [10], greater than 100 µM.
For the compound `O.O.[NH-]C1(C(=O)O)CCCC1.[NH-]C1(C(=O)O)CCCC1.[Ni+2]`, the TGI in [1], in [2], in assay [3], in [4], in [5] and in [6] was greater than 100 µM in each case. Besides, the TGI in assay [7], in assay [8], in assay [9] and in assay [10] was greater than 100 µM in each case. Further, the GI50 in [8] and in [9] was greater than 100 µM each time.
Consider `COc1cc(C(O)CCBr)c(OC)cc1C` (stereo not given), for which the TGI was greater than 100 µM in assay [1]; greater than 100 µM in assay [2]; greater than 100 µM in assay [3]; greater than 52.7 µM in assay [4]; greater than 100 µM in assay [5]; greater than 100 µM in assay [6]. Moreover, the TGI in [7] was greater than 100 µM; in [8], greater than 73 µM; in [9] it was greater than 100 µM; in [10], greater than 100 µM.
Turning to `CN(/N=C/c1cccc2cccnc12)c1ccc([N+](=O)[O-])cc1[N+](=O)[O-]`, the TGI is greater than 82.1 µM in assay [1]; 29.1 µM in [2]; greater than 100 µM in assay [3]; greater than 100 µM in assay [4]; greater than 68.1 µM in assay [5]; greater than 100 µM in assay [6]. Further, the TGI was greater than 100 µM in assay [7], greater than 100 µM in assay [8], 35.8 µM in [9] and greater than 100 µM in [10].
Consider `COC(=O)C1CC23CCCN4CCC5(c6ccccc6N(C=O)C15CC2)C43` (stereo not given), for which the TGI in assay [1], in assay [2], in assay [3], in assay [4], in assay [5] and in [6] was greater than 100 µM in each case. The TGI in assay [7], in [8], in [9] and in [10] was greater than 100 µM throughout.
Take `O=C(O)CN(CC(=O)O)Cc1cc(C#Cc2ccc(C#Cc3ccccc3)cc2)cc(CN(CC(=O)O)CC(=O)O)n1`: the TGI was 39.9 µM in assay [1]; 57.6 µM in [2]; greater than 59.6 µM in assay [3]; greater than 64.9 µM in assay [4]; greater than 56.7 µM in assay [5]; 53.7 µM in assay [6]. Moreover, the TGI in assay [7] is greater than 68 µM; in assay [8], 60.9 µM; in assay [9], 47.1 µM; in [10], greater than 100 µM.
With `CCOC(=O)N1CCN(/[N+]([O-])=N/Oc2ccc([N+](=O)[O-])cc2[N+](=O)[O-])CC1`, the GI50 in assay [1] is 0.929 µM; in assay [2], 1.55 µM; in [3], 0.346 µM; in assay [4], 0.158 µM; in [5], 0.0761 µM; in assay [6] it was 0.482 µM. Further, the GI50 in assay [7] is 0.434 µM; in assay [8], 3.48 µM; in assay [9], 0.322 µM; in [10], 3.63 µM. The TGI is 3.66 µM in assay [1]; 21.5 µM in assay [2]; 1.46 µM in [3]; 12.2 µM in assay [4]; 0.201 µM in assay [5]; 35.7 µM in assay [7]. The results for the TGI in assay [8], in [9] and in [10] were 16.7 µM, 1.64 µM and 14.1 µM, respectively.
Turning to `CCNC(=O)C1CCCN1C(=O)C(CCCN=C(N)N)NC(=O)C(CC(C)C)NC(=O)C(CC(C)C)NC(=O)C(Cc1ccc(O)cc1)NC(=O)C(CO)NC(=O)C(Cc1c[nH]c2ccccc12)NC(=O)C(Cc1cnc[nH]1)NC(=O)C1CCC(=O)N1` (stereo not given) ([pGlu]HWSYLLRP-NHEt; configuration not given here), the GI50 in assay [1] is greater than 100 µM; in [2] it was greater than 100 µM; in assay [3] it was greater than 100 µM; in assay [4] it was 81.7 µM; in assay [5], greater than 100 µM; in assay [6], greater than 100 µM. For the same compound, the GI50 in assay [7], in assay [8], in assay [9] and in [10] was greater than 100 µM throughout. Further, the TGI in assay [1], in assay [2], in [3], in assay [4], in assay [5] and in [6] was greater than 100 µM in each case. Further, the TGI in assay [7], in assay [8], in assay [9] and in [10] was greater than 100 µM in each case.

These data come from PubChem BioAssay (NCI).
